Experimental data published in patent publication US5830770A, “Hapten-protein conjugates for use in detection of organophosphorus compounds” (priority 1993, dated 1998).
Read-outs that look alike come from different tables or passages of the source.

Assays:
generic antibodies = assay: Relative inhibition of binding of generic antibodies to hapten conjugate; set-up: species or system rabbit; conditions: inhibition at 100 μg/ml minus inhibition at 0.1 μg/ml organophosphate
Procedure: (§1) Assay was carried out in the same manner as Example 5 with the following modifications. Antisera was diluted 1:2000 with 1% BSA in PBST and 100 μl was incubated for 2 hours at 25° C. with 100 μl of each concentration of the unconjugated OP--in this case the generic part--in a microtitration plate. Concentrations of OP ranged from 200 to 0.001 μg ml^-1.

antisera from rabbit 20 [1] = type: binding; set-up: key to cross reactivity by inhibition ELISA, Rabbit 20: +++: strong; ++: medium; +: weak reaction; poor: slight; -: none; conditions: for concentration for 50% inhibition: Rabbit 20; for cross reactivity by inhibition ELISA, Rabbit 20: antisera 1:2000, 2 hours at 25° C.
Procedure: (§2) An ELISA was used to screen the antisera for polyclonal antibodies to the generic hapten/conjugate of the invention using the following protocol. Microtitre plates (Costar) were coated with the appropriate hapten conjugate with ovalbumin by diluting that in 0.05M sodium hydrogen carbonate/sodium carbonate buffer (pH 9.6) to give an optimum protein concentration of 1 μg/ml previously determined by chequerboard titration; protein found by Bradford assay. 100 μl was added to each microtitre plate well and the plates placed in a moist chamber overnight, washed 3 times with 0.15 phosphate buffered saline pH7.2 with 0.05% Tween 20[RTM]: PBST), and blotted dry. Blocking was carried out by adding 250 μl per well of 5% skimmed milk for 1 hour at 25° C.
(§3) After two further washings the coated microplates were stored at -20° C. until required, whereon they were washed once with PBST. Antisera were diluted (1/1000 for general screening or doubling dilutions up to 1/512,000 for titration assays) in PSBT, applied to microtitre wells in triplicate in 50 μl amounts and incubated in a moist chamber at 25° C. for 1 hour (appropriate positive and negative controls were included--PBST, negative rabbit serum and positive serum when it had been produced). Wells were then washed 3 times in PBST and 200 μl of a 1:1500 dilution of swine anti-rabbit immunoglobulin conjugated to horseradish peroxidase (DAKO) was added to each well. Plates were incubated once more for 1 hour at 25° C. then washed 3 times with PBST.
(§4) Tetramethylbenzidine (TMB) enzyme substrate solution was prepared by adding 400 μl of 6.0 g/l TMB in DMSO to 24.5 ml of 0.1M sodium acetate buffer pH5.5 with 100 μl of 1% H2 O2 and 100 μl added to the wells. The microplates were incubated for 15 minutes in the dark at 25° C. before the reaction was stopped by adding 50 μl of 2.5M H2 SO4 and the absorbance read at 450 nm against air. Results: are given below with those of Example 6.
as §1
(§5) Cross reactivity of antisera from rabbits 19, 20 and 21 by inhibition ELISA with the various organophosphorus pesticides is shown in Table 5 in which concentration (μg ml^-1) for 50% inhibition to occur is given together with the diluent in which this is achieved--PBST or % methanol in PBST for figures.

antisera from rabbit 19 [2] = type: binding; set-up: key: +++: strong; ++: medium; +: weak reaction; poor: slight; -: none; conditions: antisera 1:2000, 2 hours at 25° C.
Procedure: as §2, §3, §4, §1, §5

antisera from rabbit 21 [3] = type: binding; set-up: key: +++: strong; ++: medium; +: weak reaction; poor: slight; -: none; conditions: antisera 1:2000, 2 hours at 25° C.
Procedure: as §2, §3, §4, §1, §5

antisera from rabbit 20 [4] = assay: Competitive/inhibition ELISA, antisera pre-incubated with unconjugated OP, 1 μg/ml OP-Ova; type: binding; conditions: 1 hour at 25° C.
Procedure: as §2, §3, §4
(§6) This assay was carried out in the same manner as that of Example 5 with the following modifications. After plate coating the various dilutions of antisera were incubated with various concentrations of analyte solution for 1 to 2 hours at 25° C. or overnight at 4° C. Antiserum dilutions tested were 1/1000, 1/2000, 1/5000 and 1/10000 and the concentrations of the analyte ranged from 200 to 0.001 μg/ml. Coating of generic hapten-ovalbumin was at 1 μg/ml and later other coating strengths were tested ranging from 400 to 12.5 ng/ml. Note: cross reactivity in all cases was checked by carrying out an indirect ELISA where plates were coated with the blocking agents or BSA or ovalbumin at 1 μg/ml. Skimmed milk, foetal calf serum (both 5%), caesin (0.3%) or fish skin gelatin (0.5%) were selected as the blocking agent in this regard. Use of competitive assay is preferred for determining cross-reactivity.
(§7) 400 to 0.012 μg/ml conjugate for 200 to 0.001 μg/ml analyte detection.

antisera from rabbit 19 [5] = assay: as above; type: binding; conditions: 1 hour at 25° C.
Procedure: as §2, §3, §4, §6, §7

antisera from rabbit 21 [6] = assay: as above; type: binding; conditions: 1 hour at 25° C.
Procedure: as §2, §3, §4, §6, §7

Rabbit 20 antisera = assay: Competitive/inhibition ELISA, antisera preincubated with OP for 2 hours, plate coated with 400 μg/ml OP-Ova; type: binding; conditions: 2 hours at 25° C.
Procedure: as §2, §3, §4, §6, §7

Compound: COP(=S)(OC)OCCCCO [Hapten + spacer, (CH3 O)2 P(S)--O--(CH2)4 --OH]
- Relative inhibition of binding of generic antibodies to hapten conjugate as % of hapten + spacer inhibition (generic antibodies): 100.0%
- concentration for 50% inhibition (antisera from rabbit 20 [1]; diluent PBST): 3.0 µg/mL
- cross reactivity by inhibition ELISA, Rabbit 20 (antisera from rabbit 20 [1]): +++
- cross reactivity by inhibition ELISA, Rabbit 19 (antisera from rabbit 19 [2]): +++
- cross reactivity by inhibition ELISA, Rabbit 21 (antisera from rabbit 21 [3]): +++

Compound: CCOC(=O)CC(SP(=S)(OC)OC)C(=O)OCC (stereo not shown) [Malathion, malathion]
- Relative inhibition of binding of generic antibodies to hapten conjugate as % of hapten + spacer inhibition (generic antibodies): 38.6%
- cross reactivity by inhibition ELISA, Rabbit 20 (antisera from rabbit 20 [1]): +
- cross reactivity by inhibition ELISA, Rabbit 19 (antisera from rabbit 19 [2]): -
- cross reactivity by inhibition ELISA, Rabbit 21 (antisera from rabbit 21 [3]): -

Compound: COC(=O)/C(C)=C/OP(=S)(OC)OC [Methacrifos, methacrifos]
- Relative inhibition of binding of generic antibodies to hapten conjugate as % of hapten + spacer inhibition (generic antibodies): 89.1%
- concentration for 50% inhibition (antisera from rabbit 20 [1]; diluent PBST): 8.2 µg/mL
- cross reactivity by inhibition ELISA, Rabbit 20 (antisera from rabbit 20 [1]): +++
- cross reactivity by inhibition ELISA, Rabbit 19 (antisera from rabbit 19 [2]): +
- cross reactivity by inhibition ELISA, Rabbit 21 (antisera from rabbit 21 [3]): +

Compound: COP(=S)(OC)OCCCCO [OP]
- absorbance after pre-incubation with OP (antisera from rabbit 20 [4]; OP 0.01 μg/ml): 1.95
- absorbance after pre-incubation with OP (antisera from rabbit 20 [4]; OP 0.1 μg/ml): 1.95
- absorbance after pre-incubation with OP (antisera from rabbit 20 [4]; OP 0.4 μg/ml): 1.81
- absorbance after pre-incubation with OP (antisera from rabbit 20 [4]; OP 3.1 μg/ml): 1.54
- absorbance after pre-incubation with OP (antisera from rabbit 20 [4]; OP 12.5 μg/ml): 1.31
- absorbance after pre-incubation with OP (antisera from rabbit 20 [4]; OP 50.0 μg/ml): 1.19
- absorbance after pre-incubation with OP (antisera from rabbit 19 [5]; OP 0.01 μg/ml): 1.83
- absorbance after pre-incubation with OP (antisera from rabbit 19 [5]; OP 0.1 μg/ml): 1.73
- absorbance after pre-incubation with OP (antisera from rabbit 19 [5]; OP 0.4 μg/ml): 1.66
- absorbance after pre-incubation with OP (antisera from rabbit 19 [5]; OP 3.1 μg/ml): 1.50
- absorbance after pre-incubation with OP (antisera from rabbit 19 [5]; OP 12.5 μg/ml): 1.36
- absorbance after pre-incubation with OP (antisera from rabbit 19 [5]; OP 50.0 μg/ml): 1.34
- absorbance after pre-incubation with OP (antisera from rabbit 21 [6]; OP 0.01 μg/ml): 1.52
- absorbance after pre-incubation with OP (antisera from rabbit 21 [6]; OP 0.1 μg/ml): 1.42
- absorbance after pre-incubation with OP (antisera from rabbit 21 [6]; OP 0.4 μg/ml): 1.45
- absorbance after pre-incubation with OP (antisera from rabbit 21 [6]; OP 3.1 μg/ml): 1.34
- absorbance after pre-incubation with OP (antisera from rabbit 21 [6]; OP 12.5 μg/ml): 1.02
- absorbance after pre-incubation with OP (antisera from rabbit 21 [6]; OP 50.0 μg/ml): 1.24
- absorbance after preincubation with OP (Rabbit 20 antisera; antisera 1/1000, OP conc 0.001): 1.38
- absorbance after preincubation with OP (Rabbit 20 antisera; antisera 1/1000, OP conc 0.01): 1.58
- absorbance after preincubation with OP (Rabbit 20 antisera; antisera 1/1000, OP conc 0.1): 1.48
- absorbance after preincubation with OP (Rabbit 20 antisera; antisera 1/1000, OP conc 1.0): 1.24
- absorbance after preincubation with OP (Rabbit 20 antisera; antisera 1/1000, OP conc 10.0): 0.94
- absorbance after preincubation with OP (Rabbit 20 antisera; antisera 1/1000, OP conc 20.0): 0.87
- absorbance after preincubation with OP (Rabbit 20 antisera; antisera 1/1000, OP conc 100.0): 0.82
- absorbance after preincubation with OP (Rabbit 20 antisera; antisera 1/1000, OP conc 200.0): 0.89
- absorbance after preincubation with OP (Rabbit 20 antisera; antisera 1/2000, OP conc 0.001): 1.10
- absorbance after preincubation with OP (Rabbit 20 antisera; antisera 1/2000, OP conc 0.01): 1.11
- absorbance after preincubation with OP (Rabbit 20 antisera; antisera 1/2000, OP conc 0.1): 1.04
- absorbance after preincubation with OP (Rabbit 20 antisera; antisera 1/2000, OP conc 1.0): 0.87
- absorbance after preincubation with OP (Rabbit 20 antisera; antisera 1/2000, OP conc 10.0): 0.74
- absorbance after preincubation with OP (Rabbit 20 antisera; antisera 1/2000, OP conc 20.0): 0.67
- absorbance after preincubation with OP (Rabbit 20 antisera; antisera 1/2000, OP conc 100.0): 0.67
- absorbance after preincubation with OP (Rabbit 20 antisera; antisera 1/2000, OP conc 200.0): 0.69

Compound: CCN(CC)c1nc(C)cc(OP(=S)(OC)OC)n1 [Pirimiphos-methyl, pirimiphos-methyl]
- Relative inhibition of binding of generic antibodies to hapten conjugate as % of hapten + spacer inhibition (generic antibodies): 21.1%
- cross reactivity by inhibition ELISA, Rabbit 20 (antisera from rabbit 20 [1]): poor
- cross reactivity by inhibition ELISA, Rabbit 19 (antisera from rabbit 19 [2]): -
- cross reactivity by inhibition ELISA, Rabbit 21 (antisera from rabbit 21 [3]): -

Compound: CCNP(=S)(OC)O/C(C)=C/C(=O)OC(C)C (stereo not shown) [Propetamphos, propetamphos]
- Relative inhibition of binding of generic antibodies to hapten conjugate as % of hapten + spacer inhibition (generic antibodies): 75.9%
- concentration for 50% inhibition (antisera from rabbit 20 [1]; diluent 10% methanol in PBST): 36.2 µg/mL
- cross reactivity by inhibition ELISA, Rabbit 20 (antisera from rabbit 20 [1]): +++
- cross reactivity by inhibition ELISA, Rabbit 19 (antisera from rabbit 19 [2]): +
- cross reactivity by inhibition ELISA, Rabbit 21 (antisera from rabbit 21 [3]): ++

Compound: OCCCCO [Spacer, 1,4 butanediol]
- cross reactivity by inhibition ELISA, Rabbit 20 (antisera from rabbit 20 [1]): -
- cross reactivity by inhibition ELISA, Rabbit 19 (antisera from rabbit 19 [2]): -
- cross reactivity by inhibition ELISA, Rabbit 21 (antisera from rabbit 21 [3]): -

Compound: COP(=O)(OC)O/C(=C\Cl)c1cc(Cl)c(Cl)cc1Cl [Tetrachlorvinphos, tetrachlorvinphos]
- Relative inhibition of binding of generic antibodies to hapten conjugate as % of hapten + spacer inhibition (generic antibodies): 27.2%
- cross reactivity by inhibition ELISA, Rabbit 20 (antisera from rabbit 20 [1]): poor
- cross reactivity by inhibition ELISA, Rabbit 19 (antisera from rabbit 19 [2]): -
- cross reactivity by inhibition ELISA, Rabbit 21 (antisera from rabbit 21 [3]): poor
